Inhibition and IC50 data for 22 compounds are collected here from US10323038B2, “Pyrazole compounds and methods of making and using same” (ABIDE THERAPEUTICS, INC., priority 2015, dated 2019).

SMILES strings stand for the structures. pIC50: −log10 of the molar value. Where only a bound is given, the exact number is not on record here.

Assay [1] concerns the target MAGL (Mus musculus (Mouse), UniProt O35678). Nature of the assay: In vitro competitive activity-based protein profiling, MAGL (mouse). As to conditions: for inhibition at 1 µM: read-out: MAGL % inh. 1 μM (mouse). The assay is classed as biochemical. An outline of the steps: (§1)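 Competitive ABPP; proteome 1.0 mg/mL total protein; mouse = brain membranes or cell lysates, human = prefrontal cortex or cell membranes. Inhibitor preinc 30 min, 37° C; FP-Rh/HT-01 (50 μM DMSO stock) 30 min, 37° C; SDS-PAGE, in-gel fluorescence of MAGL/FAAH bands.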

In assay [2] the target is FAAH (Mus musculus (Mouse), UniProt O08914). Nature of the assay: In vitro competitive activity-based protein profiling, FAAH (mouse). It counts as biochemical. As to conditions: for inhibition at 1 µM: read-out: FAAH % inh. 1 μM (mouse). The method in brief: as §1
Sequence of FAAH (O08914 whole entry): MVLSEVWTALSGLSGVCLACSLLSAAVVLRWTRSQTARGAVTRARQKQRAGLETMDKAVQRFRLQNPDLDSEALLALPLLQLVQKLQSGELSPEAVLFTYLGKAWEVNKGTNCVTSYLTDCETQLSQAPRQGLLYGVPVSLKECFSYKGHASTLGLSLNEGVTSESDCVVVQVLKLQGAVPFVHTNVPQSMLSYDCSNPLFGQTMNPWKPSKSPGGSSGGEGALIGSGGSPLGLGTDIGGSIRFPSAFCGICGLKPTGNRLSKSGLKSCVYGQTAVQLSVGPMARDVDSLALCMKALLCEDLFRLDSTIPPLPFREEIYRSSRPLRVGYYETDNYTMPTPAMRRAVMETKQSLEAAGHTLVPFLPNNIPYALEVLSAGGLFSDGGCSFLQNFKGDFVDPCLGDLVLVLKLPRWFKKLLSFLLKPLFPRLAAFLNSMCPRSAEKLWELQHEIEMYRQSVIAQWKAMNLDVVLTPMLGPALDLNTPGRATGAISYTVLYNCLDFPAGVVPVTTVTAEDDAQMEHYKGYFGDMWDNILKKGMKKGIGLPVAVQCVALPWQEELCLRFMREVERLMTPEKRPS

Sequence of MAGL (O35678 whole entry): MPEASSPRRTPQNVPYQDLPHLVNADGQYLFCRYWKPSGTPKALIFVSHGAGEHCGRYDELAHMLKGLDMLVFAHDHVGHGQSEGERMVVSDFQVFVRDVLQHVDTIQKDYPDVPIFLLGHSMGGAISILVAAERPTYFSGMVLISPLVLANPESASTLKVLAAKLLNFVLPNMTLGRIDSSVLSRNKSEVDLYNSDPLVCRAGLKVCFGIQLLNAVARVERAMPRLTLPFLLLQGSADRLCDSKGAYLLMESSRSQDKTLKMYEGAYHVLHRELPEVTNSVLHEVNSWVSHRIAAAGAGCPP

On to `CC(=O)N(C)c1cnn(C(=O)N2CC3CN(Cc4cccc(N5CCOCC5)c4)CC3C2)c1` (stereo not drawn) [Example 121, N-methyl-N-(1-(5-(3-morpholinobenzyl)octahydropyrrolo[3,4-c]pyrrole-2-carbonyl)-1H-pyrazol-4-yl)acetamide], for which the inhibition at 1 µM was at least 75% in assay [1] and 50 to 75% in assay [2].
For `CC(=O)N(C)c1cnn(C(=O)N2CC3CN(Cc4ccc(F)c(Cl)c4)CC3C2)c1` (stereo not drawn) [Example 122, N-(1-(5-(3-chloro-4 fluorobenzyl)octahydropyrrolo[3,4-c]pyrrole-2-carbonyl)-1H-pyrazol-4-yl)-N-methylacetamide], in assay [1], the pIC50 (as a rule, the IC50 on a negative log10 scale, so that one unit is a factor of ten) is 6.00 to 7.00 and the inhibition at 1 µM is at least 75%. In assay [2], the pIC50 was at least 7.00 and the inhibition at 1 µM was at least 75%.
`CC(=O)N(C)c1cnn(C(=O)N2CC3CN(Cc4ccc(N5CCCC5)c(Cl)c4)CC3C2)c1` (stereo not drawn) [Example 123, N-(1-(5-(3-chloro-4-(pyrrolidin-1-yl)benzyl)octahydropyrrolo[3,4-c]pyrrole-2-carbonyl)-1H-pyrazol-4-yl)-N-methylacetamide]: the pIC50 in assay [1] and in assay [2] was at least 7.00 throughout. In addition, the inhibition at 1 µM in assay [1] and in assay [2] was at least 75% in each case.
Consider `CC(=O)N(C)c1cnn(C(=O)N2CC3CN(Cc4ccc(C(F)(F)F)c(N5CCOCC5)c4)CC3C2)c1` (stereo not drawn) [Example 124, N-methyl-N-(1-(5-(3-morpholino-4-(trifluoromethyl)benzyl)octahydropyrrolo[3,4-c]pyrrole-2-carbonyl)-1H-pyrazol-4-yl)acetamide], for which the negative logarithm of the IC50 (pIC50) in assay [1] and in assay [2] was at least 7.00 each time. Moreover, the inhibition at 1 µM in assay [1] and in assay [2] was at least 75% in each case.
On to `CC(=O)N(C)c1cnn(C(=O)N2CC3CN(Cc4cc(Cl)cc(N5CCOCC5)c4)CC3C2)c1` (stereo not drawn) [Example 125, N-(1-(5-(3-chloro-5-morpholinobenzyl)octahydropyrrolo[3,4-c]pyrrole-2-carbonyl)-1H-pyrazol-4-yl)-N-methylacetamide], for which the pIC50 in assay [1] and in assay [2] was at least 7.00 throughout. The inhibition at 1 µM in assay [1] and in assay [2] was at least 75% in each case.
Regarding `CC(=O)N(C)c1cnn(C(=O)N2CC3CN(Cc4cc(C(F)(F)F)ccc4C(F)(F)F)CC3C2)c1` (stereo not drawn) [Example 126, N-(1-(5-(2,5-bis(trifluoromethyl)benzyl)octahydropyrrolo[3,4-c]pyrrole-2-carbonyl)-1H-pyrazol-4-yl)-N-methylacetamide], the inhibition at 1 µM in assay [1] and in assay [2] was at least 75% in each case.
Regarding `CC(=O)N(C)c1cnn(C(=O)N2CC3CN(Cc4cc(N5CCCC5)ccc4C(F)(F)F)CC3C2)c1` (stereo not drawn) [Example 127, N-methyl-N-(1-(5-(5-(pyrrolidin-1-yl)-2-(trifluoromethyl)benzyl)octahydropyrrolo[3,4-c]pyrrole-2-carbonyl)-1H-pyrazol-4-yl)acetamide], the inhibition at 1 µM in assay [1] and in assay [2] was at least 75% each time.
On to `CC(=O)N(C)c1cnn(C(=O)N2CC3CN(Cc4cc(C(F)(F)F)ccc4N4CCCC4)CC3C2)c1` (stereo not drawn) [Example 128, N-methyl-N-(1-(5-(2-(pyrrolidin-1-yl)-5-(trifluoromethyl)benzyl)octahydropyrrolo[3,4-c]pyrrole-2-carbonyl)-1H-pyrazol-4-yl)acetamide], for which the inhibition at 1 µM in assay [1] and in assay [2] was at least 75% throughout.
Consider `CC(=O)N(C)c1cnn(C(=O)N2CC3CN(Cc4ccc(Cl)c(N5CCOCC5)c4)CC3C2)c1` (stereo not drawn) [Example 129, N-(1-(5-(4-chloro-3-morpholinobenzyl)octahydropyrrolo[3,4-c]pyrrole-2-carbonyl)-1H-pyrazol-4-yl)-N-methylacetamide], for which the inhibition at 1 µM in assay [1] and in assay [2] was at least 75% each time.
In the case of `CC(=O)N(C)c1cnn(C(=O)N2CC3CN(Cc4ccc(C(F)(F)F)c(N5CCCC5)c4)CC3C2)c1` (stereo not drawn) [Example 130, N-methyl-N-(1-(5-(3-(pyrrolidin-1-yl)-4-(trifluoromethyl)benzyl)octahydropyrrolo[3,4-c]pyrrole-2-carbonyl)-1H-pyrazol-4-yl)acetamide], the pIC50 in assay [1] and in assay [2] was at least 7.00 throughout. Also, the inhibition at 1 µM in assay [1] and in assay [2] was at least 75% in each case.
In the case of `CC(=O)N(C)c1cnn(C(=O)N2CC3CN(Cc4ccc(N5CCOCC5)cc4C(F)(F)F)CC3C2)c1` (stereo not drawn) [Example 131, N-methyl-N-(1-(5-(4-morpholino-2-(trifluoromethyl)benzyl)octahydropyrrolo[3,4-c]pyrrole-2-carbonyl)-1H-pyrazol-4-yl)acetamide], in assay [1], the pIC50 is at least 7.00 and the inhibition at 1 µM was at least 75%. For the same compound, in assay [2], the negative-log IC50 (pIC50) is at least 7.00 and the inhibition at 1 µM is at least 75%.
On to `CC(=O)N(C)c1cnn(C(=O)N2CC3CN(Cc4ccc(N5CCCC5)cc4Cl)CC3C2)c1` (stereo not drawn) [Example 132, N-(1-(5-(2-chloro-4-(pyrrolidin-1-yl)benzyl)octahydropyrrolo[3,4-c]pyrrole-2-carbonyl)-1H-pyrazol-4-yl)-N-methylacetamide], for which the inhibition at 1 µM in assay [1] and in assay [2] was at least 75% each time.
`CC(=O)N(C)c1cnn(C(=O)N2C[C@H]3C[C@@H](NCc4ccccc4Cl)C[C@H]3C2)c1` [Example 133, N-(1-(cis-5-(2-chlorobenzylamino)octahydrocyclopenta[c]pyrrole-2-carbonyl)-1H-pyrazol-4-yl)-N-methylacetamide]: the values for the inhibition at 1 µM in assay [1] and in assay [2] were 25 to 50% and at least 75%, respectively.
In the same order, the values of `CC(=O)N(C)c1cnn(C(=O)N2C[C@H]3C[C@@H](NCc4ccc(Cl)cc4)C[C@H]3C2)c1` [Example 135, N-(1-(cis-5-(4-chlorobenzylamino)octahydrocyclopenta[c]pyrrole-2-carbonyl)-1H-pyrazol-4-yl)-N-methylacetamide] are at least 75% and at least 75%.
For `CC(=O)N(C)c1cnn(C(=O)N2C[C@H]3C[C@H](NCc4ccccc4Cl)C[C@H]3C2)c1` [Example 136, N-(1-(trans-5-(2-chlorobenzylamino)octahydrocyclopenta[c]pyrrole-2-carbonyl)-1H-pyrazol-4-yl)-N-methylacetamide], in assay [1], the negative-log IC50 (pIC50) is 6.00 to 7.00 and the inhibition at 1 µM was at least 75%. In assay [2], the pIC50 is 6.00 to 7.00 and the inhibition at 1 µM was at least 75%.
Regarding `CC(=O)N(C)c1cnn(C(=O)N2C[C@H]3C[C@H](NCc4cccc(Cl)c4)C[C@H]3C2)c1` [Example 137, N-(1-(trans-5-(3-chlorobenzylamino)octahydrocyclopenta[c]pyrrole-2-carbonyl)-1H-pyrazol-4-yl)-N-methylacetamide], in assay [1], the pIC50 was 6.00 to 7.00 and the inhibition at 1 µM is at least 75%. In assay [2], the pIC50 is 6.00 to 7.00 and the inhibition at 1 µM is at least 75%.
`CC(=O)N(C)c1cnn(C(=O)N2C[C@H]3C[C@H](NCc4ccc(Cl)cc4)C[C@H]3C2)c1` [Example 138, N-(1-(trans-5-(4-chlorobenzylamino)octahydrocyclopenta[c]pyrrole-2-carbonyl)-1H-pyrazol-4-yl)-N-methylacetamide]: the inhibition at 1 µM in assay [1] and in assay [2] was at least 75% throughout.
For `CC(=O)N(C)c1cnn(C(=O)N2C[C@H]3C[C@@H](N(C)Cc4ccccc4Cl)C[C@H]3C2)c1` [Example 139, N-(1-(cis-5-((2-chlorobenzyl)(methyl)amino)octahydrocyclopenta[c]pyrrole-2-carbonyl)-1H-pyrazol-4-yl)-N-methylacetamide], in assay [1], the negative logarithm of the IC50 (pIC50) was 5.00 to 6.00 and the inhibition at 1 µM was 25 to 50%. Besides, in assay [2], the pIC50 was 6.00 to 7.00 and the inhibition at 1 µM is at least 75%.
Take `CC(=O)N(C)c1cnn(C(=O)N2C[C@H]3C[C@@H](N(C)Cc4cc(C(F)(F)F)ccc4C(F)(F)F)C[C@H]3C2)c1` [Example 140, N-(1-(cis-5-((2,5-bis(trifluoromethyl)benzyl)(methyl)amino)octahydrocyclopenta[c]pyrrole-2-carbonyl)-1H-pyrazol-4-yl)-N-methylacetamide]: the inhibition at 1 µM in assay [1] and in assay [2] was at least 75% each time.
Take `CC(=O)N(C)c1cnn(C(=O)N2C[C@H]3C[C@@H](N(C)Cc4cccc(Cl)c4)C[C@H]3C2)c1` [Example 141, N-(1-(cis-5-((3-chlorobenzyl)(methyl)amino)octahydrocyclopenta[c]pyrrole-2-carbonyl)-1H-pyrazol-4-yl)-N-methylacetamide]: in assay [1], the negative logarithm of the IC50 (pIC50) was 6.00 to 7.00 and the inhibition at 1 µM lay in the range of 50 to 75%. In assay [2], the pIC50 is at least 7.00 and the inhibition at 1 µM was at least 75%.
Take `CC(=O)N(C)c1cnn(C(=O)N2C[C@H]3C[C@H](N(C)Cc4cc(N5CCCC5)ccc4C(F)(F)F)C[C@H]3C2)c1` [Example 142, N-methyl-N-(1-(trans-5-(methyl(5-(pyrrolidin-1-yl)-2-(trifluoromethyl)benzyl)amino)octahydrocyclopenta[c]pyrrole-2-carbonyl)-1H-pyrazol-4-yl)acetamide]: the inhibition at 1 µM in assay [1] and in assay [2] was at least 75% throughout.
In the case of `CC(=O)N(C)c1cnn(C(=O)N2C[C@H]3C[C@@H](N(C)Cc4ccc(Cl)cc4)C[C@H]3C2)c1` [Example 143, N-(1-(cis-5-((4-chlorobenzyl)(methyl)amino)octahydrocyclopenta[c]pyrrole-2-carbonyl)-1H-pyrazol-4-yl)-N-methylacetamide], the pIC50 in assay [1] and in assay [2] was 6.00 to 7.00 in each case. Besides, the inhibition at 1 µM in assay [1] and in assay [2] was at least 75% throughout.
